Results published in patent US4866046A, “Low-dosage sublingual aspirin” (Top Laboratories, Inc., priority 1988, dated 1989).

Key:
Platelet Aggregation [1] = conditions: dose of 325 mg/day, in some people; cited from earlier work
Platelet Aggregation [2] = assay: Platelet aggregation inhibition in volunteers, thrombin as aggregating agent; format: in vivo, human; conditions: daily dose, average (range)
Protocol: Platelet aggregation was measured against thrombin as aggregating agent. Tablets were all similarly made as described in Example 1.

Cyclooxygenase = Cyclooxygenase inhibition in volunteers after daily aspirin tablets; format: in vivo, human

Structure (SMILES): CC(=O)Oc1ccccc1C(=O)O [Aspirin, acetylsalicylic acid]
- inhibit platelet aggregation (Platelet Aggregation [1]): 90%
- % Inhibition, after 5-7 days, of Platelet Aggregation (Platelet Aggregation [2]; 10 mg. tablet, swallowed): 27.5 (0-87) %
- % Inhibition, after 5-7 days, of Platelet Aggregation (Platelet Aggregation [2]; 20 mg. sublingual tablet): 45.3 (35-60) %
- % Inhibition, after 5-7 days, of Platelet Aggregation (Platelet Aggregation [2]; 80 mg. sublingual tablet (tablet of Example 1)): 95.7 (88-100) %
- % Inhibition, after 5-7 days, of Platelet Aggregation (Platelet Aggregation [2]; 80 mg. tablet, swallowed): 44.2 (5-98) %
- % Inhibition, after 5-7 days, of Platelet Aggregation (Platelet Aggregation [2]; 325 mg. sublingual tablet): 78.5 (62-98) %
- inhibition at 325 mg (Platelet Aggregation [2]; Homo sapiens, Platelet, 325 mg tablet, swallowed, read-out: % Inhibition, after 5-7 days, of Platelet Aggregation): 70%
- % Inhibition, after 5-7 days, of Cyclooxygenase (Cyclooxygenase; 10 mg. tablet, swallowed, average (range) of volunteers): 55.6 (11-95) %
- % Inhibition, after 5-7 days, of Cyclooxygenase (Cyclooxygenase; 20 mg. sublingual tablet, average (range)): 83.3 (75-94) %
- % Inhibition, after 5-7 days, of Cyclooxygenase (Cyclooxygenase; 80 mg. sublingual tablet (tablet of Example 1), average (range)): 99.0 (95-100) %
- % Inhibition, after 5-7 days, of Cyclooxygenase (Cyclooxygenase; 80 mg. tablet, swallowed, average (range)): 76.3 (13-100) %
- % Inhibition, after 5-7 days, of Cyclooxygenase (Cyclooxygenase; 325 mg tablet, swallowed, average (range)): 97.7 (25-100) %
- % Inhibition, after 5-7 days, of Cyclooxygenase (Cyclooxygenase; 325 mg. sublingual tablet, average): 100.0%
